What all share (assay type): in vivo, Mus Musculus
The subject of data set [1] is Diet-Induced Obese (DIO) Mice. The data set can be described thus: ipGTT (glucose tolerance) in diet-induced obese mice. The note with it: for AUC Day −1: before dosing.
Data set [2] is described as follows: Body weight of treated diet-induced obese mice. Here is the method:
Male C57Bl/6J mice were obtained at 8 weeks of age from Animal Resources Centre (Canning Vale, Western Australia). Animals were individually housed and allowed free movement and ad libitum access to water and food. Animals were maintained on a 12 hour light (6 am-6 pm) and 12 hour dark (6 pm-6 am) cycle. Animals were monitored daily. Body weight, food and water intake were recorded 3 times a week.

Data set [3] deals with Diet-Induced Obese (DIO) Mice. Put plainly: Fasting plasma glucose in diet-induced obese mice. The note with it: for FPG Day −1: before dosing.
The test system of another data set is db/db mice. The data set can be described thus: Fasting plasma glucose in db/db mice. The conditions noted are these: for FPG Day 0: Metformin 300 mg/kg group. From the text: The db/db mouse model comprises mice with a homozygous mutation of the leptin receptor gene that ablates leptin signalling in the hypothalamus and elsewhere. The db/db mouse model is commonly used to study the genetic and physiological mechanisms of obesity and type II diabetes. […] Leptin acts through the leptin receptor to control whole-body energy homeostasis by regulating both appetite and energy expenditure. Loss of function of the leptin receptor gene results in hyperphagia and slower metabolism, leading to obesity and eventually diabetes. […] Dosing solutions of the test articles: Methazolamide, Metformin and Methazolamide/Metformin were prepared fresh on each dosing day and stored at room temperature, protected from light. The compound was formulated in sterile vehicle: […] Stock solutions were prepared by dissolving the compound in NMP:PEG300 (1:2, v/v). Saline was added to the stock solution prior to administration of the compound. The solutions were mixed by vortexing immediately prior to dosing to ensure a homogeneous suspension of the compound. Male C57Bl/6J db/db mice were obtained at 10 weeks of age from Animal Resources Centre ([…], Western Australia). Animals were individually housed and allowed free movement and ad libitum access to water and food. Animals were maintained on a 12 hour light (6 am-6 pm) and 12 hour dark (6 pm-6 am) cycle. Animals were monitored daily. Body weight, food and water intake were recorded 3 times a week. Mice were fed a standard chow diet, and used after a two week acclimatisation period. […] The fasting plasma glucose levels of the animals was tested prior to commencement of the study and then every 3-4 days during dosing. The animals were fasted for a period of 4 hours after dosing and prior to the taking of a blood sample via a tail nick. Blood glucose levels were monitored using commercially available glucometers (Accuchek Advantage, Roche) based on the electric current generated when a blood drop is spotted on a test strip resulting in conversion of the glucose present in the sample to gluconolactone by the glucose dehydrogenase enzyme, in the presence of the coenzyme (PQQ).

Where [4] appears, read: Acetazolamide 10 mg/kg b.i.d. oral gavage.
The mark [5] stands for this setting: Acetazolamide 20 mg/kg b.i.d. oral gavage.
[6] abbreviates: Acetazolamide 50 mg/kg b.i.d. oral gavage.
Setting [7] is: Metformin 300 mg/kg oral gavage.
Setting [8] is: Chlorthalidone 10 mg/kg oral gavage.
The mark [9] stands for this setting: Chlorthalidone 20 mg/kg oral gavage.
Setting [10] is: Chlorthalidone 50 mg/kg oral gavage.
Setting [11] is: Furosemide 10 mg/kg oral gavage.
Setting [12] is: Furosemide 20 mg/kg oral gavage.
Setting [13] is: Furosemide 50 mg/kg oral gavage.

Molecules are shown by their SMILES.

Experimental findings from patent US10172837B2, “Insulin sensitisers and methods of treatment” (NAIA Metabolic, Inc., priority 2007, dated 2019) are described below.

`CC(=O)Nc1nnc(S(N)(=O)=O)s1` [Acetazolamide]: in data set [1], the “effect on glucose tolerance of diet-induced obese mice” value is recorded as “increased the glucose tolerance”. The “AUC Day 13” value in data set [1] (setting [4]) came to 944 ± 26 mM·min; in data set [1] (setting [5]) it was 902 ± 98 mM·min; in data set [1] (setting [6]), 1020 ± 144 mM·min. For the same compound, the “AUC Treatment vs Vehicle Day 13” value in data set [1] (setting [4]) is listed as −22%^2; in data set [1] (setting [5]), −25%^3; in data set [1] (setting [6]), −15%^. The entries for the “Delta AUC Treatment Day 13 vs Day −1” value in data set [1] (setting [4]), in data set [1] (setting [5]) and in data set [1] (setting [6]) were −30%^1, −33%^1 and −23%^2, respectively. The entries for the “AUC Day −1” value in data set [1] (Acetazolamide 10 mg/kg group), in data set [1] (Acetazolamide 20 mg/kg group) and in data set [1] (Acetazolamide 50 mg/kg group) were 1342 ± 88 mM·min, 1340 ± 68 mM·min and 1323 ± 109 mM·min, respectively. Moreover, in data set [2] (Day 0 or Day 13, DIO mice), the “difference in body weight between treated groups” value is “no difference in body weight”. The “effect on fasting plasma glucose levels of diet-induced obese mice” value in data set [3] is “reduced the fasting plasma glucose levels”. Moreover, the “Delta FPG Treatment Day 13 vs Day −1” value in data set [3] (setting [4]) is listed as −9%; in data set [3] (setting [5]) it was −14%^2; in data set [3] (setting [6]), −5%. In addition, the “FPG Day 13” value in data set [3] (setting [4]) turned out to be 5.76 ± 0.43 mM; in data set [3] (setting [5]), 5.46 ± 0.32 mM; in data set [3] (setting [6]) it was 6.28 ± 0.31 mM. For the same compound, the “FPG Treatment vs Vehicle Day 13” value is −9% in data set [3] (setting [4]), −14%^1 in data set [3] (setting [5]) and −1% in data set [3] (setting [6]). The “FPG Day −1” value worked out at 6.35 ± 0.5 mM in data set [3] (Acetazolamide 10 mg/kg group), 6.32 ± 0.42 mM in data set [3] (Acetazolamide 20 mg/kg group) and 6.62 ± 0.38 mM in data set [3] (Acetazolamide 50 mg/kg group).
Turning to `CN(C)C(=N)N=C(N)N` [Metformin], the “AUC Day −1” value in data set [1] (Metformin 300 mg/kg group) is 1171 ± 81 mM·min. In addition, in data set [1] (setting [7]), the “AUC Day 13” value is 1307 ± 91 mM·min, the “AUC Day 13 Treat vs Veh” value was 8% and the “Delta AUC Day 13 vs Day −1” value is reported as 12%. For the same compound, in the data set on db/db mice (before dosing (Table 9-1)), the “FPG Day 0” value was determined as 23.86 ± 1.4 mM. In addition, in the data set on db/db mice (before dosing (Table 9-2)), the “FPG Day 0” value stood at 23.86 ± 1.4 mM. Besides, in the data set with db/db mice (setting [7]), the “Delta FPG Treatment Day 8 vs Day 0” value is −20%^2, the “Delta FPG Treatment Day 18 vs Day 0” value is reported as −16%^, the “FPG Day 8” value is given as 19.10 ± 2.1 mM and the “FPG Day 18” value is on record as 20.01 ± 1.8 mM. In the data set with db/db mice (setting [7]), the “FPG Treatment vs Vehicle Day 8” value was −18%^ and the “FPG Treatment vs Vehicle Day 18” value is recorded as −27%^4. For the same compound, the “FPG Day −1” value in data set [3] (Metformin 300 mg/kg group) is given as 6.1 ± 0.6 mM. Also, in data set [3] (setting [7]), the “Delta FPG Treatment Day 13 vs Day −1” value amounted to 11%, the “Delta FPG Treatment vs Vehicle Day 13” value is recorded as −11% and the “FPG Day 13” value is 6.8 ± 0.4 mM.
As to `NS(=O)(=O)c1cc(C2(O)NC(=O)c3ccccc32)ccc1Cl` (stereo not drawn) [Chlorthalidone], in data set [1], the “effect on glucose tolerance of diet-induced obese mice” value was “no beneficial effect”. In addition, the “AUC Day −1” value in data set [1] (Chlorthalidone 10 mg/kg group) was 1439 ± 137 mM·min; in data set [1] (Chlorthalidone 20 mg/kg group), 1416 ± 110 mM·min; in data set [1] (Chlorthalidone 50 mg/kg group), 1398 ± 87 mM·min. Also, the results for the “AUC Day 13” value in data set [1] (setting [8]), in data set [1] (setting [9]) and in data set [1] (setting [10]) were 1660 ± 137 mM·min, 1263 ± 75 mM·min and 1512 ± 46 mM·min, respectively. Further, the “AUC Treatment vs Vehicle Day 13” value in data set [1] (setting [8]) is on record as 29%; in data set [1] (setting [9]), −2%; in data set [1] (setting [10]), 17%. Further, the “Delta AUC Treatment Day 13 vs Day −1” value in data set [1] (setting [8]) was 15%; in data set [1] (setting [9]), −11%; in data set [1] (setting [10]), 8%. Moreover, the “effect on fasting plasma glucose levels of diet-induced obese mice” value in data set [3] is listed as “no beneficial effect”. Moreover, the figures for the “FPG Day −1” value in data set [3] (Chlorthalidone 10 mg/kg group), in data set [3] (Chlorthalidone 20 mg/kg group) and in data set [3] (Chlorthalidone 50 mg/kg group) were 7.8 ± 0.31 mM, 7.58 ± 0.18 mM and 7.94 ± 0.4 mM, respectively. The “Delta FPG Treatment Day 13 vs Day −1” value in data set [3] (setting [8]) was 4%; in data set [3] (setting [9]), −7%; in data set [3] (setting [10]), −7%. The figures for the “FPG Day 13” value in data set [3] (setting [8]), in data set [3] (setting [9]) and in data set [3] (setting [10]) were 8.08 ± 0.35 mM, 7.08 ± 0.31 mM and 7.4 ± 0.51 mM, respectively. Besides, the “FPG Treatment vs Vehicle Day 13” value in data set [3] (setting [8]) is recorded as 5%; in data set [3] (setting [9]), −8%; in data set [3] (setting [10]), −4%.
In the case of `NS(=O)(=O)c1cc(C(=O)O)c(NCc2ccco2)cc1Cl` [Furosemide], in data set [2] (100 mg/kg/d, DIO mice), the “outcome of animals” value is “had to be euthanized”. The compound further had a body weight lost in data set [2] (100 mg/kg/d, in 5 days, DIO mice) of around 6 g. Besides, the “body weight effect” value in data set [2] (DIO mice, consistent with a toxic effect) was “substantial body weight loss”. For the same compound, the “FPG Day −1” value in data set [3] (Furosemide 10 mg/kg group) worked out at 7.28 ± 0.3 mM; in data set [3] (Furosemide 20 mg/kg group), 7.4 ± 0.4 mM; in data set [3] (Furosemide 50 mg/kg group) it was 6.78 ± 0.3 mM. The “Delta FPG Treatment Day 13 vs Day −1” value in data set [3] (setting [11]) worked out at 24%; in data set [3] (setting [12]), 15%; in data set [3] (setting [13]), 20%. In addition, the “FPG Day 13” value in data set [3] (setting [11]) came out at 9.02 ± 0.4 mM; in data set [3] (setting [12]) it was 8.50 ± 0.4 mM; in data set [3] (setting [13]) it was 8.16 ± 0.6 mM. For the same compound, the figures for the “FPG Treatment vs Vehicle Day 13” value in data set [3] (setting [11]), in data set [3] (setting [12]) and in data set [3] (setting [13]) were 4%, −2% and −6%, respectively.
